Data published in patent US8309550B2, “Kinase inhibitors and their use as pharmaceutical agents” (Shanghai Genomics, Inc., priority 2011, dated 2012).

What was measured:
Type in all cases: biochemical
CDK9T1 = CDK9T1 (Homo sapiens, UniProt P50750); experiment: Kinase assay CDK9T1 (Table I); conditions: read-out: Kinase inhibition, IC50 CDK9T1
Method: [The source words this procedure for another target and reports this target under the same test.] (§1) Kinase assays. The compounds from the example above were tested for their ability to inhibit kinases. Recombinant human CDK2/cyclinA (PV3267), CDK1/cyclinB (PV3292), CDK5/p35 (PV3000) and Aurora A (PV3612) were purchased from Invitrogen (Carlsbad, Calif., USA). Kinase dosage and Z′-LYTE™ substrate for each kinase assay is as follows: CDK2/cyclinA-8 ng/reaction, Ser/Thr 12 Peptide; CDK1/cyclinB-0.8 ng/reaction, Ser/Thr 12 Peptide, CDK5/p35-0.8 ng/reaction, Ser/Thr 12 Peptide, and Aurora A-16 ng/reaction, Ser/Thr 1 Peptide. All enzymatic assays were performed using Z′-LYTE™ Kinase Assay Kits and were carried out following protocols provided by Invitrogen. To prepare stock solutions, compounds were dissolved at 10 mM in 100% DMSO and stored at 4° C. in amber glass vials. Enzyme reactions were initiated by adding recombinant enzyme and Z′-LYTE™ Ser/Thr peptide substrate and ATP mixture to 384-well plates containing diluted test compounds. Kinase and corresponding peptide substrate were incubated for 1 hr at room temperature in the presence of varying amounts of test compound with reaction buffer (20 μM ATP, […] [pH 7.5], 5 mM MgCl2, 0.5 mM EGTA, 0.005% Brij-35). Development buffer was added and incubated for another one hour at room temperature. Reactions were terminated by addition of stop buffer, and fluorescence emission intensity ratio 445 nm/520 nm (excited at 400 nm) was quantified by VICTOR-3 Multilabel Reader (Perkin-Elmer, Waltham, Mass., USA). Phosphorylation was calculated from the emission ratio. IC50 was determined using Sigmoid curve-fitting software Origin 6.0 (MicroCal, LLC, Northampton, Mass., USA).

CDK5/p35 = molecular target: T1, CDK5/p35 (Homo sapiens, UniProt Q00535); experiment: Z'-LYTE kinase assay CDK5/p35; conditions: read-out: Kinase inhibition, IC50 CDK5/p35
T1 construct: purchased Invitrogen PV3000
Method: as §1

CDK2/cyclinA = molecular target: T2, CDK2/cyclinA (Homo sapiens, UniProt P24941); experiment: Z'-LYTE kinase assay CDK2/cyclinA; conditions: read-out: Kinase inhibition, IC50 CDK2A
T2 construct: purchased Invitrogen PV3267
Method: as §1

CDK1/cyclinB = molecular target: T3, CDK1/cyclinB (Homo sapiens, UniProt P06493); experiment: Z'-LYTE kinase assay CDK1/cyclinB; conditions: read-out: Kinase inhibition, IC50 CDK1B
T3 construct: purchased Invitrogen PV3292
Method: as §1

Aurora B = Aurora B (Homo sapiens, UniProt Q96GD4); experiment: Kinase assay Aurora B (Table I); conditions: read-out: Kinase inhibition, IC50 Aurora B
Method: [The source words this procedure for another target and reports this target under the same test.] as §1

Aurora A = molecular target: T4, Aurora A (Homo sapiens, UniProt O14965); experiment: Z'-LYTE kinase assay Aurora A; conditions: read-out: Kinase inhibition, IC50 Aurora A
T4 construct: purchased Invitrogen PV3612
T4 sequence (O14965 1-403): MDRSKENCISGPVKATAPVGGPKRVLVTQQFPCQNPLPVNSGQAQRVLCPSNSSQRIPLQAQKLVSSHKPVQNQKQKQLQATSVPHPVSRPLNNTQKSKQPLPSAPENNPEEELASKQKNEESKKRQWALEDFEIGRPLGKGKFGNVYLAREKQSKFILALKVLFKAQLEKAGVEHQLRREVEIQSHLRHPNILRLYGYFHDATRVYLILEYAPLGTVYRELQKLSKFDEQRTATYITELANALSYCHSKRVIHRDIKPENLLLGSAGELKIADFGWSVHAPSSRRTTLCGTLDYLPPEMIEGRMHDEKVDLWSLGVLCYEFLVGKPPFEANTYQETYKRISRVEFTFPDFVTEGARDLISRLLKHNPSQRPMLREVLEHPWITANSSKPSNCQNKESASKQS
Method: as §1

T1 sequence (Q00535 whole entry): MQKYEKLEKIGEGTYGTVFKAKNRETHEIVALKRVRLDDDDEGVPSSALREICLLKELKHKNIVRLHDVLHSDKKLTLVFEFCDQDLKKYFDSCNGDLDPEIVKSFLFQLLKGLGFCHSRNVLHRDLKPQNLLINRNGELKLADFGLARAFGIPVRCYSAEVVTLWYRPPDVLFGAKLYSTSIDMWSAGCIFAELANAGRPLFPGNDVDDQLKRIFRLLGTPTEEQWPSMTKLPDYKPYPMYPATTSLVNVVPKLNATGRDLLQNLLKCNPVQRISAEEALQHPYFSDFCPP
T1 sequence (Q15078 whole entry partner): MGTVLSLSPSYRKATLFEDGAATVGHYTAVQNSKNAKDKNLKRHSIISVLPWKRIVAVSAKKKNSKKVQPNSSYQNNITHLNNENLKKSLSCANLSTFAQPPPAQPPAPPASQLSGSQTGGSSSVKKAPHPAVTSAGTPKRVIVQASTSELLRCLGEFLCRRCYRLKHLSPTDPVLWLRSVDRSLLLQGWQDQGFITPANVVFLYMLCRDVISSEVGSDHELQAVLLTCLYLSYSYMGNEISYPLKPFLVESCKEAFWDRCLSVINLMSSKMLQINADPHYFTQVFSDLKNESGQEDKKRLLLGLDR
Chain of CDK9T1 (P50750 whole entry): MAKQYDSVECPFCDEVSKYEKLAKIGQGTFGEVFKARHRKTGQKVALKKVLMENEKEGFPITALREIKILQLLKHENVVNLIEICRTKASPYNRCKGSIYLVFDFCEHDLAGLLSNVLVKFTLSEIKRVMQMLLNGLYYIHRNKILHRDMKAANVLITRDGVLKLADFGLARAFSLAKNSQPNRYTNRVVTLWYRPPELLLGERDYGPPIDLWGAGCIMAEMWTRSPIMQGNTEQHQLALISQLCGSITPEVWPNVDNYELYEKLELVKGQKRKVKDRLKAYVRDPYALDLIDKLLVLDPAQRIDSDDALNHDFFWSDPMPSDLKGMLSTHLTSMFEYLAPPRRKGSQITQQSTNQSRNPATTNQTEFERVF
Chain of CDK9T1 (O60563 whole entry partner): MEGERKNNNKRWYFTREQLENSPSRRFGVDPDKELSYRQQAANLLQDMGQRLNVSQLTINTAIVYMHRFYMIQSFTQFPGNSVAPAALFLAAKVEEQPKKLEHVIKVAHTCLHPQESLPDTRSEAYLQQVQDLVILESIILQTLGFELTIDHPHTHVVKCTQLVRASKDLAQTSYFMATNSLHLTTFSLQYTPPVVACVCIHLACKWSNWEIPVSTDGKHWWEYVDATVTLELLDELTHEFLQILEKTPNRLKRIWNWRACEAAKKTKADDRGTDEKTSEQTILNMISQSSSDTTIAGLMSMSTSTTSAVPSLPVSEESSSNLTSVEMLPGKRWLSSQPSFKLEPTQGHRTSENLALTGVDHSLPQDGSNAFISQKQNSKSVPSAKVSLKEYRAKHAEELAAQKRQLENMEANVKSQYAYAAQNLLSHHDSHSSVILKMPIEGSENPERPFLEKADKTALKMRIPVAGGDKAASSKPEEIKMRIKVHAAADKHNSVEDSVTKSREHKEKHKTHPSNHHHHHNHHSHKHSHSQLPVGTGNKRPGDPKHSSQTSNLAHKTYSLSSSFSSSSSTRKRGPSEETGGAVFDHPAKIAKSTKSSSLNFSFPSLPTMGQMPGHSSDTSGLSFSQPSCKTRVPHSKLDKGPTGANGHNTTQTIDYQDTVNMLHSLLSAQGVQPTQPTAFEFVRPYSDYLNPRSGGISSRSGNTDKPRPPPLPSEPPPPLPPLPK
T3 sequence (P06493 whole entry): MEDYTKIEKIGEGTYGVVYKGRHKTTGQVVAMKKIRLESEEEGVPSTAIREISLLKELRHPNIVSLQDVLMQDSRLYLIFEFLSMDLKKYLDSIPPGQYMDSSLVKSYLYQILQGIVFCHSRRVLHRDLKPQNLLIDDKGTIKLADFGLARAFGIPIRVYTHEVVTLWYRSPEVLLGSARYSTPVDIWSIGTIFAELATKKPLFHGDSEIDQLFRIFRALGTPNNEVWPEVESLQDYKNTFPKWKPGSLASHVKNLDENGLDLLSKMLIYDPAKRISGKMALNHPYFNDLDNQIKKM
T3 sequence (P14635 whole entry partner): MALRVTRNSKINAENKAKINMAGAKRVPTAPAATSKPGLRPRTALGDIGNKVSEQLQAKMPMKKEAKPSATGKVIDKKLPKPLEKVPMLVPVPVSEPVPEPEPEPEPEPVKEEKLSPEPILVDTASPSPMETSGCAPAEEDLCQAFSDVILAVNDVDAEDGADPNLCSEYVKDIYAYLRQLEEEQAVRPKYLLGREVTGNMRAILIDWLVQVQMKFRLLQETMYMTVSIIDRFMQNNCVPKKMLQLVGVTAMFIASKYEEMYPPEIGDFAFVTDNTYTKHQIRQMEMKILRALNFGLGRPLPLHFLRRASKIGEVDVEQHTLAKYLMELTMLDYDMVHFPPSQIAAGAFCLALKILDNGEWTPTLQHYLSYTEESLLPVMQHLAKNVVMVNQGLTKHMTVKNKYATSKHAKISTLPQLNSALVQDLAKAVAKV
Chain of Aurora B (Q96GD4 whole entry): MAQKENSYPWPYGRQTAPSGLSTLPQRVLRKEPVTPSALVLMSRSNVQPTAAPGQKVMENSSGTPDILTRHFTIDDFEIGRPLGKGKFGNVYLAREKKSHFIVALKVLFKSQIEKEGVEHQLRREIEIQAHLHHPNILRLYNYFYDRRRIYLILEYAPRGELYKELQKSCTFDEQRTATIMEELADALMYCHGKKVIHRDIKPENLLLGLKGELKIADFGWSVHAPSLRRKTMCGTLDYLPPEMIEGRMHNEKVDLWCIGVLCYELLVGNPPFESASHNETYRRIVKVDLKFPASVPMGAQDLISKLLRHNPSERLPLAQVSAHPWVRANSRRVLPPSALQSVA

Row | IC50 (CDK9T1) | IC50 (CDK5/p35) | IC50 (CDK2/cyclinA) | IC50 (CDK1/cyclinB) | IC50 (Aurora B) | IC50 (Aurora A) | Structure (SMILES)
1 | 1.17 µM | > 10 µM | 4.05 µM | 4.82 µM | > 10 µM | 4.67 µM | Oc1cccc(Nc2nccc(-c3cn(Cc4ccccc4)c4ccccc34)n2)c1 [Compound 11, 3-[4-(1-Benzyl-1H-indol-3-yl)-pyrimidin-2-ylamino]-phenol]
2 | 0.026 µM | 0.522 µM | 0.003 µM | 1.21 µM | 0.47 µM | 1.05 µM | CCn1cc(-c2ccnc(Nc3ccc(O)cc3)n2)c2ccccc21 [Compound 6, 4-[4-(1-Ethyl-1H-indol-3-yl)-pyrimidin-2-ylamino]-phenol]
3 | 0.095 µM | 0.35 µM | 0.016 µM | 0.19 µM | > 10 µM | 2.46 µM | CCn1cc(-c2ccnc(Nc3ccc(O)cc3)n2)c2ccnc(Cl)c21 [Compound 70, 4-(4-(7-Chloro-1-ethyl-1H-pyrrolo[2,3-c]pyridin-3-yl)pyrimidin-2-ylamino)phenol]
4 | 0.67 µM | 4.37 µM | 1.17 µM | 2.36 µM | – | 4.22 µM | Oc1ccc(Nc2nccc(-c3cn(Cc4ccccc4)c4ccccc34)n2)cc1 [Compound 10, 4-[4-(1-Benzyl-1H-indol-3-yl)-pyrimidin-2-ylamino]-phenol]

The remaining lines, values behind:

Row | Structure (SMILES) | IC50 (CDK9T1) | IC50 (CDK5/p35) | IC50 (CDK2/cyclinA) | IC50 (CDK1/cyclinB) | IC50 (Aurora B) | IC50 (Aurora A)
5 | CCn1cc(-c2ccnc(Nc3c(C)cc(O)cc3C)n2)c2ccccc21 [Compound 9, 4-[4-(1-Ethyl-1H-indol-3-yl)-pyrimidin-2-ylamino]-3,5-dimethyl-phenol] | > 10 µM | > 10 µM | > 100 µM | > 10 µM | > 10 µM | > 10 µM
6 | CCn1cc(-c2ccnc(Nc3cccc(O)c3)n2)c2cccnc21 [Compound 13, 3-(4-(1-Ethyl-1H-pyrrolo[2,3-b]pyridin-3-yl)pyrimidin-2-ylamino)phenol] | 0.45 µM | 1.96 µM | 0.061 µM | 1.18 µM | 2.05 µM | 0.71 µM
7 | CCCn1cc(-c2ccnc(Nc3cccc(C(=O)N4CCN(C)CC4)c3)n2)c2cccnc21 [Compound 34, (4-Methylpiperazin-1-yl)(3-(4-(1-propyl-1H-pyrrolo[2,3-b]pyridin-3-yl)pyrimidin-2-ylamino)phenyl)methanone] | 0.35 µM | 0.62 µM | 1.34 µM | 1.57 µM | > 10 µM | > 10 µM
8 | Cc1cc(O)cc(C)c1Nc1nccc(-c2cn(C)c3ccccc23)n1 [Compound 5, 3,5-Dimethyl-4-[4-(1-methyl-1H-indol-3-yl)-pyrimidin-2-ylamino]-phenol] | – | > 10 µM | ≥ 100 µM | > 10 µM | > 10 µM | > 10 µM
9 | CCn1cc(-c2ccnc(Nc3ccc(O)cc3C)n2)c2ccccc21 [Compound 8, 4-[4-(1-Ethyl-1H-indol-3-yl)-pyrimidin-2-ylamino]-3-methyl-phenol] | > 10 µM | > 10 µM | 0.411 µM | 8.95 µM | > 10 µM | > 10 µM
10 | Cn1cc(-c2ccnc(Nc3ccc(O)cc3Cl)n2)c2ccccc21 [Compound 3, 3-Chloro-4-(4-(1-methyl-1H-indol-3-yl)pyrimidin-2-ylamino)phenol] | > 10 µM | > 10 µM | 7.53 µM | > 10 µM | > 10 µM | > 10 µM
11 | CCn1cc(-c2ccnc(Nc3cccc([N+](=O)[O-])c3)n2)c2cccnc21 [Compound 14, 4-(1-Ethyl-1H-pyrrolo[2,3-b]pyridin-3-yl)-N-(3-nitrophenyl)pyrimidin-2-amine] | 0.79 µM | > 10 µM | 1.07 µM | > 10 µM | > 10 µM | 1.34 µM
12 | Cc1cc(O)ccc1Nc1nccc(-c2cn(C)c3ccccc23)n1 [Compound 4, 3-Methyl-4-[4-(1-methyl-1H-indol-3-yl)-pyrimidin-2-ylamino]-phenol] | – | > 10 µM | 1.77 µM | > 10 µM | > 10 µM | > 10 µM
